ChEMBL document CHEMBL5604063, “ASAP - DENV-2 NS2B-NS3 protease fluorescence dose response” (2024)
Several values for one entry are separate records, joined by “and”; a condition that tells them apart may be missing. Identical values can stand only once.

Target: Genome polyprotein (dengue virus type 2, UniProt P29990)
Assay type: functional, Thailand/16681/1984

Sequence of Genome polyprotein (P29990 1346-1475 limits assumed): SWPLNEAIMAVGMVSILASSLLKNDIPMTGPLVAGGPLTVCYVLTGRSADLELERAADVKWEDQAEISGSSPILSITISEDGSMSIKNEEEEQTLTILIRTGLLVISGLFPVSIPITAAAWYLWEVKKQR
Sequence of Genome polyprotein (P29990 1476-2093 limits assumed): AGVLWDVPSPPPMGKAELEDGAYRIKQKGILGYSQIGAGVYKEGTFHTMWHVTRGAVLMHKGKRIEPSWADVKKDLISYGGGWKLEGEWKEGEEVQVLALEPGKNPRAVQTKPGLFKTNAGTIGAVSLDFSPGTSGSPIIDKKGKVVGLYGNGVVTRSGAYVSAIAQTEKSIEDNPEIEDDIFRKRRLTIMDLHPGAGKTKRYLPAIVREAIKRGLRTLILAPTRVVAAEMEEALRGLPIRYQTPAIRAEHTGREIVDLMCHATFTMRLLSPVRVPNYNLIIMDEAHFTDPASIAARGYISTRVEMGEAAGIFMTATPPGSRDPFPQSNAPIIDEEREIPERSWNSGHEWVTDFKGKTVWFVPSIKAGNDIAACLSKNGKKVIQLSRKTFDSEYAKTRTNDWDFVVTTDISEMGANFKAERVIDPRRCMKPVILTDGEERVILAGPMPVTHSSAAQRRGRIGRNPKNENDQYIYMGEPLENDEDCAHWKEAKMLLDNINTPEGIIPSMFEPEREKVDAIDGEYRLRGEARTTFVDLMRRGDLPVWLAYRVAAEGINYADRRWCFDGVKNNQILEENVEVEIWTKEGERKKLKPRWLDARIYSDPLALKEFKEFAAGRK

Compound | IC50
COc1n[nH]cc1CN1CCC(c2nc3ccccc3s2)CC1 | > 99.5 µM
CCCOc1ccc([C@@H](CC(=O)Nc2cccc(CN)c2)NC(=O)OCc2ccccc2)cc1 | 24.7 µM and 59.4 µM
CCn1c(=O)c(N2C[C@@H]3C[C@]3(CO)C2)nc2ccccc21 | > 99.5 µM
Cc1c(C(=O)Nc2cc(-c3cccnc3)ccn2)c2ccccc2n1C | > 99.5 µM
CC(C)[C@@H]1[C@H](C(=O)Nc2cccc(CN)c2)CCN1C(=O)OCc1ccccc1 | > 99.5 µM
COc1cc(COc2cncc3ccccc23)nc(N2CCNCC2)n1 | > 99.5 µM
COc1ccc(NS(=O)(=O)c2ccc(Cl)cc2C(=O)O)cc1OC1CCCC1 | > 99.5 µM
Nc1ccc(/C=C/C(=O)C(=O)N2CCN(CCc3ccccc3)CC2)cc1 | > 99.5 µM
NCc1ccc(CNC(=O)[C@@H](NC(=O)OCc2ccccc2)c2ccc(OCc3ccccc3)cc2)cc1 | 16 µM and 8.53 µM and 8.03 µM
Cc1cc(C)c([C@@H](NC(=O)OCc2ccccc2)C(=O)Nc2cccc(CN)c2)c(C)c1 | > 99.5 µM
N=C(N)NCCc1cccc(B(O)O)c1 | > 99.5 µM
CCn1ccnc(N2CC(=O)[C@@H](c3c[nH]c4ccccc34)C2)c1=O | > 99.5 µM
Cc1c(C(=O)Nc2ccc3c(c2)CS(=O)(=O)C3)cc(C2CC2)n1C | > 99.5 µM
Cc1nn(C)cc1-c1ccc(S(=O)(=O)Nc2ccc(Cl)cc2C(=O)O)cc1 | 85.4 µM
NCc1cccc(NC(=O)[C@H](NC(=O)OCc2ccccc2)C2CCCCC2)c1 | > 99.5 µM
c1cc(-c2nnc(NCc3nnn[nH]3)s2)no1 | > 99.5 µM
CCn1c(=O)c(N2C[C@H]3C[C@H]2C(F)(F)C3)nc2ccccc21 | > 99.5 µM
CC(C)c1cnc(COc2ccc(S(=O)(=O)Nc3ccc(Cl)cc3C(=O)O)cc2)o1 | 55.7 µM
CN(C)[C@H]1CCc2cc(-c3cccc(N4CCNC4=O)c3)ccc2NC1 | > 99.5 µM
CNC(=O)c1cc(Br)cnc1NS(=O)(=O)c1ccc(Oc2ccccc2Cl)cc1 | 71.4 µM
CC(C)(CO)NC(=O)[C@@H](NC(=O)OCc1ccccc1)c1ccc(OCc2ccccc2)cc1 | > 99.5 µM
O=C(O)c1cc(Cl)ccc1NS(=O)(=O)c1ccc(-c2cccc(F)c2F)cc1 | 8.82 µM
c1ccc(COc2ccc3[nH]cc(CN4CCC(c5cscn5)CC4)c3c2)cc1 | > 99.5 µM
NC(=O)c1cccc(NC(=O)[C@@H](NC(=O)c2ccc(Oc3ccc(C(F)(F)F)cc3)cc2)c2ccc(OCc3ccccc3)cc2)c1 | > 99.5 µM
CCn1c(=O)c(N2CC(S(=O)(=O)N3CCCC3)C2)nc2ccccc21 | > 99.5 µM
CC[C@@H](C)c1nc(C)cc(N2CCC(n3ncc(N)c3C(F)(F)F)CC2)n1 | > 99.5 µM

Compound | IC50
Cc1ccc(S(=O)(=O)CNC(=O)[C@H](Nc2ccc3c(c2)CNC3)c2cc(Cl)cc3[nH]ncc23)cc1 | > 99.5 µM
NCc1cccc(NC(=O)[C@H](NS(=O)(=O)c2cccc(Cl)c2)c2ccc(OCc3ccccc3)cc2)c1 | > 99.5 µM
COc1ccc(S(=O)(=O)Nc2cc(F)c(Cl)cc2C(=O)NCC(C)C)cc1 | 97 µM
CCC(C)(C)C(=O)N[C@H](C(=O)Nc1cccc(CN)c1)c1ccc(OCc2ccccc2)cc1 | > 99.5 µM
Cc1ccc(F)c2c1CCN(Cc1ccn(C3CNC3)c1)C2 | > 99.5 µM
Cc1cc(NS(=O)(=O)c2ccc(Cl)cc2C(=O)O)nn1Cc1ccccc1 | > 99.5 µM
O=C(O)c1cc(Cl)ccc1NS(=O)(=O)c1ccc(OCc2nnnn2C2CCC2)cc1 | > 99.5 µM
O=c1[nH]c(CSc2ccccc2Cl)nc2ccsc12 | > 99.5 µM
NCc1cccc(NC(=O)[C@@H](NC(=O)OCc2ccccc2)c2ccc(-c3cc4cccnc4s3)cc2)c1 | 6.07 µM
O=C(Nc1ccc(NS(=O)(=O)c2ccc(Cl)cc2C(=O)O)cc1)c1ccccc1 | > 99.5 µM
O=C(Nc1ccc2c(c1)B(O)OC2)c1cccc(OCc2c(Cl)cccc2Cl)c1 | > 99.5 µM
C[C@@H](O)CNC(=O)c1cc(Cl)ccc1NS(=O)(=O)c1ccc(Oc2ccccc2Cl)cc1 | 56.6 µM
C[C@@H](N)c1cccc(NC(=O)[C@@H](NC(=O)OCc2ccccc2)c2ccc(OCc3ccccc3)cc2)c1 | > 99.5 µM
CCn1ccnc(N2CC[C@H](c3ccc(OC)nc3)C2)c1=O | > 99.5 µM
C[C@@H](Cc1c[nH]c2ccccc12)N1CCC(c2nc3ccccc3s2)CC1 | > 99.5 µM
O=C(NCC1CC1)c1cc(Cl)ccc1NS(=O)(=O)c1ccc(Oc2ccccc2Cl)cc1 | 22 µM
CCn1c(=O)c(N2CCC[C@H]2C(=O)NC2CC2)nc2ccccc21 | > 99.5 µM
CC[C@H]1CN(C(=O)c2ccc(C3(CN)CC3)cc2)Cc2ccccc21 | > 99.5 µM
CC(C)(C)c1cc(CN2CCC(c3cscn3)CC2)n[nH]1 | > 99.5 µM
NCc1cccc(NC(=O)[C@@H](NC(=O)OCc2ccccc2)c2ccc(-c3ccnc(N)c3)cc2)c1 | > 99.5 µM
Cn1cc(C(=O)N[C@@H](C(=O)Nc2cccc(CN)c2)c2ccc(OCc3ccccc3)cc2)cn1 | > 99.5 µM
CCn1cc(-c2ccc(CN(C)C)cc2)nc(N2CC[C@@H](CO)C2)c1=O | > 99.5 µM
O=C(O)Cn1ccnc(N2CC[C@@H](CO)C2)c1=O | > 99.5 µM
Cc1cc(C(=O)Nc2ccc3c(c2)CNC3)c2cn[nH]c2c1 | > 99.5 µM
CCn1cc(C2=CCCNC2)nc(N2CC[C@@H](CO)C2)c1=O | > 99.5 µM
CS(=O)(=O)c1cc(NC(=O)OCc2ccccc2)cc(C(=O)Nc2cccc(CN)c2)c1 | > 99.5 µM

Compound | IC50
c1ccc([C@@H]2C[C@H]3C[C@@H]2C[C@H]3NCc2n[nH]c3ccccc23)cc1 | > 99.5 µM
c1ccc(-c2c[nH]nc2CN2CCC(c3cscn3)CC2)cc1 | > 99.5 µM
CC(C)[C@@H]1C(=O)O[C@H]1C(=O)O | > 99.5 µM
CCn1ccnc(N2C[C@H](c3c[nH]c4ccccc34)[C@H](OC(C)=O)C2)c1=O | > 99.5 µM
NCc1cccc(NC(=O)[C@@H](NC(=O)OCc2ccccc2)c2ccc(-c3ccncc3F)cc2)c1 | > 99.5 µM
O=C(c1cc(Cl)cc2[nH]ncc12)N1CCC[C@H]1C1CCNCC1 | > 99.5 µM
CC(C)NC(=O)[C@H](Nc1ccc2c(c1)C(=O)OC2)c1cc(Cl)cc2[nH]ncc12 | > 99.5 µM
CCOc1cccc(N2CC[C@@H](CO)C2)c1 | > 99.5 µM
CN(C(=O)c1cc(Cl)cc(NC(=O)OCc2ccccc2)c1)c1ccc(CN)cc1 | > 99.5 µM
CCn1c(=O)c(N2CC[C@H](N3CCN(C)CC3)C2)nc2ccccc21 | > 99.5 µM
CN(C(=O)OCc1ccccc1)[C@H](C(=O)Nc1cccc(CN)c1)c1ccc(OCc2ccccc2)cc1 | 43.8 µM
CC(=O)Nc1cccc(-c2ccc(S(=O)(=O)Nc3ccc(Cl)cc3C(=O)O)cc2)c1 | 23.9 µM
CN(C)Cc1ccc(CNC(=O)[C@@H](NC(=O)OCc2ccccc2)c2ccc(OCc3ccccc3)cc2)cc1 | > 99.5 µM
O=C(O)c1cc(Cl)ccc1S(=O)(=O)NC1CCN(CC2CCOCC2)CC1 | > 99.5 µM
O=Cc1ccc(N2CCC(C(=O)NCc3cccc(-c4ccccc4)c3)CC2)cc1 | 53.3 µM
CCn1cc(C(=O)NCc2ccccc2)nc(N2CC[C@@H](CO)C2)c1=O | > 99.5 µM
O=C(NC[C@H]1CCOC1)c1cc(Cl)ccc1NS(=O)(=O)c1ccc(Oc2ccccc2Cl)cc1 | 32.9 µM and 24 µM
NC(=O)c1ccc(Cn2nnc(C=Cc3ccccc3)n2)cc1 | > 99.5 µM
CC[C@@H](NCc1c[nH]c2ccccc12)c1cccnc1 | > 99.5 µM
CCC1([C@H](NC(=O)OCc2ccccc2)C(=O)NCc2cccc(CN)c2)CCCCC1 | > 99.5 µM
O=C1C[C@H]2CN(C(=O)Nc3ccc4c(c3)CNC4)CC[C@H]2N1 | > 99.5 µM
Cc1nc(COc2ccc([C@@H](NC(=O)OCc3ccccc3)C(=O)Nc3cccc(CN)c3)cc2)cs1 | > 99.5 µM
Cn1ccnc(N2CCC(NS(=O)(=O)c3ccc(Cl)cc3C(=O)O)CC2)c1=O | > 99.5 µM
O=C(O)c1cc(Cl)ccc1S(=O)(=O)Nc1ccc(S(=O)(=O)Nc2ccccc2)cc1 | > 99.5 µM
NC[C@H]1CC[C@H](NC(=O)[C@@H](NC(=O)OCc2ccccc2)c2ccc(OCc3ccccc3)cc2)CC1 | > 99.5 µM
NCc1cccc(NC(=O)[C@@H](NC(=O)OCc2ccccc2)c2ccc(F)cc2F)c1 | > 99.5 µM

Compound | IC50
CCCC[C@H](NC(C)=O)C(=O)N[C@H](C(=O)NCc1ccc(C(N)=O)cc1)c1ccc(OCc2ccccc2)cc1 | > 99.5 µM
O=C(Nc1cc(Cl)cc(C(=O)Nc2nc3c(s2)CNC3)c1)OCc1ccccc1 | > 99.5 µM
CCOC(=O)c1cc(C(=O)N[C@H](C(=O)Nc2cccc(CN)c2)c2ccc(OCc3ccccc3)cc2)n(C)n1 | 24.3 µM and 24.8 µM
NCc1cccc(NC(=O)[C@@H]2C[C@@H]3CC[C@H]2N3C(=O)OCc2ccccc2)c1 | > 99.5 µM
O=Cc1ccc(N2CCC(C(=O)NCCc3ccccc3[N+](=O)[O-])CC2)cc1 | 93.9 µM
Cn1nccc1-c1ccc([C@@H](NC(=O)OCc2ccccc2)C(=O)Nc2cccc(CN)c2)cc1 | > 99.5 µM
NCc1cc(Cl)ccc1NS(=O)(=O)c1ccc(Oc2ccccc2Cl)cc1 | > 99.5 µM
COc1ccc(C)cc1S(=O)(=O)N[C@@H](C(=O)Nc1cccc(CN)c1)c1ccc(OCc2ccccc2)cc1 | 96 µM
CC(C)CNC(=O)c1cc(Cl)ccc1NS(=O)(=O)c1ccc(Oc2ccccc2Cl)cc1 | 13 µM
Cc1cc(C)c(C(=O)N2C[C@H]3CN(C)CC[C@@]3(CO)C2)cc1C=O | > 99.5 µM
CCCC[C@@H](NC(=O)OC(C)(C)C)C(=O)N[C@@H](C(=O)NCc1ccc(CN)cc1)c1ccc(OCc2ccccc2)cc1 | 36.4 µM
CCn1cc(Cl)nc(N2CC[C@@H](CO)C2)c1=O | > 99.5 µM
O=Cc1ccc(N2CCC(C(=O)NCCN3CCc4ccccc43)CC2)cc1 | 20.3 µM
CCn1cc(-c2ccnc(C)c2)nc(N2CC[C@@H](CO)C2)c1=O | > 99.5 µM
O=Cc1ccc(N2CCC(C(=O)NC[C@@H]3CCCN4CCCC[C@H]34)CC2)cc1 | > 99.9 µM
c1csc(CSc2nnc(Cn3cncn3)o2)c1 | > 99.5 µM
NCc1cccc(NC(=O)[C@H](NC(=O)OCc2ccccc2)c2ccc(OCc3ccccc3)cc2)c1 | 8.05 µM
O=C(N[C@@H](C(=O)NCc1c[nH]cn1)c1ccc(OCc2ccccc2)cc1)OCc1ccccc1 | > 99.5 µM
CCSc1ccc(Cl)cc1C(=O)Nc1ccc2c(c1)CNC2 | > 99.5 µM
CC(C)N1CCc2nc(NC(=O)[C@H](NC(=O)OCc3ccccc3)c3ccc(OCc4ccccc4)cc3)sc2C1 | > 99.5 µM
O=C(NCc1nccs1)c1sccc1Cl | > 99.5 µM
CC(C)(C)OC(=O)Cn1ccnc(N2CC[C@@H](CO)C2)c1=O | > 99.5 µM
C[C@@H](CS(C)(=O)=O)NC(=O)c1cc(Cl)ccc1NS(=O)(=O)c1ccc(Oc2ccccc2Cl)cc1 | 80.9 µM
